Test results as given in US9392791B2, “Amide compound and use thereof for pest control” (Sumitomo Chemical Company, priority 2012, dated 2016).

What was measured:
[1] = tested on: Haemaphysalis longicornis; test: Test Example 11: coated screw tube, nymphal ticks Haemaphysalis longicornis; assay type: in vivo; conditions: 2 mg compound in 0.2 mL acetone coated on inner wall of screw tube, non-blood-sucking nymphal ticks, after 2 days
Description: 2 mg of each of Compounds of Present Invention 1, 2, 13, 20, 21, 45 to 47, 52 to 55 and 57 and Intermediate Compound M6-13 was weighed in a screw tube (Maruemu No. 5; 27×55 mm), and 0.2 mL of acetone was added thereto and sealed with a cap to dissolve the compound. The screw tube was rotated and inverted to uniformity coat the drug solution onto the whole inner wall of the tube. After removing the cap, the solution was air-dried for about 2 hours, then non-blood-sucking nymphal ticks, Haemaphysalis longicornis (5 ticks/group) were released, and the tube was sealed with the cap. After 2 days, the number of dead ticks was examined, and the mortality was calculated according to the following equation: Mortality (%)=100×(Number of dead ticks/Number of tested ticks).

[2] = tested on: Musca domestica; test: Test Example 8: treated filter paper with sucrose bait, Musca domestica female adults; assay type: in vivo; conditions: 500 ppm, 0.7 ml on filter paper, after 24 hours
Description: The formulations of Compounds of Present Invention 1 to 3, 9, 13 to 16 and 57 as obtained in Formulation Example 5 were diluted with water, so as to have a concentration of the active ingredient of 500 ppm, to prepare a diluted liquid for test.
A filter paper having a diameter of 5.5 cm was spread on the bottom of a polyethylene cup having the same diameter and 0.7 ml of the diluted liquid for test was added dropwise onto the filter paper, and 30 mg of sucrose was uniformly placed as bait. Into the polyethylene cup, 10 female adults of Musca domestica were released, and the cup was sealed with a lid. After 24 hours, survived and dead number of Musca domestica was examined, and the mortality was calculated.

Row | SMILES | mortality [1] | mortality [2]
1 | CCSc1ccccc1C(=O)N(C)c1ccc(C(F)(F)C(F)(F)F)cn1 [compound 13] | 100% | –
2 | CC[S+]([O-])c1cc(C(F)(F)F)ccc1C(=O)N(C)c1ccc(C(F)(F)C(F)(F)F)cn1 (stereo not shown) [compound 20] | 100% | –
3 | CC[S+]([O-])c1cc(C(F)(F)F)ccc1C(=O)N(C)c1ccc(SC(F)(F)F)cn1 (stereo not shown) [compound 21] | 100% | –
4 | CC[S+]([O-])c1ccccc1C(=O)N(C)c1ccc(SC(F)(F)F)cn1 (stereo not shown) [compound 57] | – | 100%
